Measured values from patent publication US10092568B2, “CBP/Catenin antagonists for enhancing asymmetric division of somatic stem cells” (University of Southern California, priority 2010, dated 2018).

Tests used:
Colorectal cancer cells [1] = experiment: Survivin expression and cytotoxicity in colorectal cancer cells; format: cell-based
From the text: Cancer. The importance of Wnt signaling in colorectal cancer is undisputed. Applicant's investigation on the therapeutic utility of ICG-001 therefore quite naturally began with colon cancer.

[2] = system: PC-12 cells with mutant PS-1 (L286V); experiment: Neuronal differentiation of PC-12 cells with FAD mutant PS-1 (L286V); format: cell-based
From the text: However, the effects of PS-1 mutations on the stability of beta-catenin, TCF/beta-catenin signaling, and thereby its potential role in AD remain controversial. Applicant has shown that introduction of a FAD mutant PS-1 (L286V) into PC-12 cells causes increased TCF/beta-catenin signaling, leading to the inhibition of neurite outgrowth. […] In the CNS, EpB2 expression is associated with axonal guidance (16). […] In initial in vivo studies, applicant treated penta-transgenic mice that over express mutant APP (695) (Swedish (K670N, M671L), Florida (I716V) and London (V717I)) and PS-1 (M146L and L286V) mutations with ICG-001 for 2 months (months 2-4). These mice normally develop massive cerebral deposition of Aβ starting at 6 weeks of age.

[3] = system: bleomycin-induced pulmonary fibrosis; experiment: Bleomycin-induced lung injury / pulmonary fibrosis; format: in vivo, mouse
[4] = system: p300/beta-catenin interaction; experiment: Disruption of the p300/beta-catenin interaction; format: biochemical
From the text: Applicant next mapped the binding domains between CBP and beta-catenin, as well as between p300 and beta-catenin. The C-terminal trans-activating region of beta-catenin (647-781) interacted with the same 1-111 amino acids of both CBP and p300 (23). However, only the interaction between CBP and beta-catenin was disrupted by ICG-001, and not the p300/beta-catenin interaction.
IQ-1. In addition to ICG-001, a screen of a large chemical library for maintenance of pluripotency in mES cells led to the identification of another compound, termed IQ-1 (FIG. 2b). […] I-Q-1 diminishes the interaction between p300 and beta-catenin thereby increasing the CBP/beta-catenin interaction (24).

p300 = p300 (Homo sapiens, UniProt Q09472); experiment: Binding to coactivator p300
p300, sequence (Q09472 whole entry, species assumed): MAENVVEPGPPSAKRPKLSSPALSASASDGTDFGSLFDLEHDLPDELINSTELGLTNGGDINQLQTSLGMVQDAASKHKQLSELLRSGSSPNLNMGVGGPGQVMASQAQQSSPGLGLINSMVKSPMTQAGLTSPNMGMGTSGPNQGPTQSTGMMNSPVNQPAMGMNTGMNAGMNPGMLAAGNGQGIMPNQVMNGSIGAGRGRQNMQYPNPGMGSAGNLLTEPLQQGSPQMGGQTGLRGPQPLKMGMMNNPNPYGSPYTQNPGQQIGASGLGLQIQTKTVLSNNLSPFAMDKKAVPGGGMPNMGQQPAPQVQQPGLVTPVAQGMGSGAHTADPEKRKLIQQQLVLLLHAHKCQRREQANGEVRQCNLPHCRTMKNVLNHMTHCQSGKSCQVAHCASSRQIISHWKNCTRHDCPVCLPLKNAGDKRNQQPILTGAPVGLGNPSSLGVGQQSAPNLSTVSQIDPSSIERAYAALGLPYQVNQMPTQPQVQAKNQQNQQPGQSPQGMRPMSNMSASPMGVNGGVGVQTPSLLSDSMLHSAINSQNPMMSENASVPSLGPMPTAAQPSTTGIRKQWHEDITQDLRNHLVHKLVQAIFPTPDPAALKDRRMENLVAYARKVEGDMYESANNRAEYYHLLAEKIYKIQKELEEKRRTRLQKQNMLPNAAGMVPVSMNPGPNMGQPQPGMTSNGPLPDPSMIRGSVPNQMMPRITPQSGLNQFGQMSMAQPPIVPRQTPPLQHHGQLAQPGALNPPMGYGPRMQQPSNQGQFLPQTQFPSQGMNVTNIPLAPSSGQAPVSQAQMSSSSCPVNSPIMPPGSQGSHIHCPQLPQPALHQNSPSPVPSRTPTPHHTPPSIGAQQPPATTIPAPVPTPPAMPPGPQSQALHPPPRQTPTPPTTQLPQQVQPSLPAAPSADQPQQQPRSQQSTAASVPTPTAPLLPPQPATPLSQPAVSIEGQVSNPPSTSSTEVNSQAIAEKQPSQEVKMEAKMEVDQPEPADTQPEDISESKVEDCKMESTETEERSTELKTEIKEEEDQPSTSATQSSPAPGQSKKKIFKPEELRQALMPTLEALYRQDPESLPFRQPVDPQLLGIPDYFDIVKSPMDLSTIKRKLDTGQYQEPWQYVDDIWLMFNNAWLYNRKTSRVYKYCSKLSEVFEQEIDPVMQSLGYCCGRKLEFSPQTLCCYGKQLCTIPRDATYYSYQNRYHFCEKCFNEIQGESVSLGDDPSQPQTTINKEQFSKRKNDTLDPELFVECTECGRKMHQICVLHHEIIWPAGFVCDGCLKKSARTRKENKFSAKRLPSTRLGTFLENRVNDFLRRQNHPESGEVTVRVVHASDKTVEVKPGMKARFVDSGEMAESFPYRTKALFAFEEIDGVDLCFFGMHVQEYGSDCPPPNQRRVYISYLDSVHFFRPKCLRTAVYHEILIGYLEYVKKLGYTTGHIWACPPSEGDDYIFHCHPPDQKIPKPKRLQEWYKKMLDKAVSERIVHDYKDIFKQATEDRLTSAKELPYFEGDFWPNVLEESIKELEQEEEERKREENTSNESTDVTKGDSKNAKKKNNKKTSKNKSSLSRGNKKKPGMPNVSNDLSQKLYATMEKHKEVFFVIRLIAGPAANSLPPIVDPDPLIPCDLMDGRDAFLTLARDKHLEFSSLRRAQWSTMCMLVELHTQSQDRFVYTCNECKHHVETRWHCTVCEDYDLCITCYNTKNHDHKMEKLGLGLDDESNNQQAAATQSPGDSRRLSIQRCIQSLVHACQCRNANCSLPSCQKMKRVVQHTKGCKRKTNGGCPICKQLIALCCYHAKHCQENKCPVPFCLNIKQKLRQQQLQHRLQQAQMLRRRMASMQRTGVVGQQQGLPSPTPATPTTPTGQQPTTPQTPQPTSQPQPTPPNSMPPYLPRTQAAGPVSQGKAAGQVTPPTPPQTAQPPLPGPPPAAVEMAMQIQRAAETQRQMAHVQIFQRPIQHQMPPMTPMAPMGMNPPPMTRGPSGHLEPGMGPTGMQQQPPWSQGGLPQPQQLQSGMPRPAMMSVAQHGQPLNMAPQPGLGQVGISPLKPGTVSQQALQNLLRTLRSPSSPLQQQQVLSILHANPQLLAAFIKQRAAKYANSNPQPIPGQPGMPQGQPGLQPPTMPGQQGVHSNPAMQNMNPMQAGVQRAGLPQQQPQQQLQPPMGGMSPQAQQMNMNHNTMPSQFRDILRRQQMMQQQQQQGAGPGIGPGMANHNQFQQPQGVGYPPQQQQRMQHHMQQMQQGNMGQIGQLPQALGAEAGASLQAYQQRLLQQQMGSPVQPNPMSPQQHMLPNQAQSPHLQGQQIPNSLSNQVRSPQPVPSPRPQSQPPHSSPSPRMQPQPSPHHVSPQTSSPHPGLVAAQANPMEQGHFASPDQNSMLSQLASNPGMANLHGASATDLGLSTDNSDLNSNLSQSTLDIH
From the text: ICG-001. Applicant's pharmacologic tools were identified using cell-based forward chemical genomic screens of small molecule secondary structure template chemical libraries (22).

[5] = system: cerebral deposition of Aβ; experiment: Aβ deposition in penta-transgenic mouse model of Alzheimer's disease; format: in vivo; conditions: 50 mg/kg/day, 2 months
Procedure: Applicant utilized a penta-transgenic mouse model of AD, which normally develops massive cerebral deposition of Aβ starting at 6 weeks of age. These mice were treated with either (A) ICG-001 (50 mg/kg/day) or (B) saline for 2 months. […] However, the effects of PS-1 mutations on the stability of beta-catenin, TCF/beta-catenin signaling, and thereby its potential role in AD remain controversial. […] In the CNS, EpB2 expression is associated with axonal guidance (16). […] In initial in vivo studies, applicant treated penta-transgenic mice that over express mutant APP (695) (Swedish (K670N, M671L), Florida (I716V) and London (V717I)) and PS-1 (M146L and L286V) mutations with ICG-001 for 2 months (months 2-4). These mice normally develop massive cerebral deposition of Aβ starting at 6 weeks of age.

[6] = system: fibroblasts from IPF patients; experiment: S100A4/FSP-1 expression in fibroblasts from IPF patients in vitro; format: cell-based
From the text: Fibrosis. Idiopathic pulmonary fibrosis (IPF)/usual interstitial pneumonia (UIP), the most common of the idiopathic interstitial pneumonias, is a devastating, progressive disorder characterized by excessive fibroblast proliferation and extracellular matrix remodeling leading to lung destruction. There is currently no effective therapy for this uniformly fatal disease. An emerging paradigm proposes a central role for alveolar epithelial cell injury and dysregulated repair in the pathogenesis of IPF. Injury to the epithelium is thought to initiate a cascade of fibroblast activation and matrix deposition, which in predisposed hosts fails to resolve as it would in the course of normal wound repair. Epithelial cells undergo excessive apoptosis, whereas fibroblasts are less amenable to apoptosis and manifest increased survival. The well-characterized model of bleomycin-induced lung injury has been extensively used to investigate potential pathways involved in the pathogenesis of pulmonary fibrosis and to explore therapeutic approaches.

Colorectal cancer cells [7] = experiment: ChIP and message of Wnt/beta-catenin target genes in colorectal cancer cells; format: cell-based
Procedure: The effects of CBP/catenin antagonism on Wnt target genes are highly promoter specific. Colorectal cancer cells were treated with ICG-001, thereby disrupting the CBP/catenin interaction, and then examined for coactivator occupancy at the promoter regions of several Wnt/beta-catenin regulated target genes using a Chromatin Immuno-precipitation Assay (ChIP), a technique that allows one to determine what proteins are associated with a particular promoter. […] Furthermore, there are other Wnt/catenin-regulated genes that selectively utilize p300 for transcriptional coactivation. An interesting example of this differential coactivator usage concerns the expression of the gene EphB2, a known Wnt/TCF/beta-catenin target gene. As almost 90% of colon cancers have high aberrant Wnt/TCF/beta-catenin activation, it would follow that EpHB2 expression would be increased with colon cancer disease progression. This, however, is not the case as EphB2 expression is generally lost in late stage colorectal cancers (34). Furthermore, disruption of EphB2 in the Min mouse, which carries a defective APC tumor suppressor gene, results in highly invasive carcinomas as opposed to the normal adenomas.

[8] = system: imatinib resistant (IR) CML cells / leukemia stem cells; experiment: Imatinib resistant CML, in vitro and NOD/SCID/IL2rγ−/− mouse model of engrafted human CML; format: in vivo
From the text: Chronic myelogenous leukemia (CML). Despite the stunning clinical success achieved to date in chronic phase CML patients treated with the BCR-ABL antagonist Gleevec/Imatinib (IM), responses in advanced phase patients are often short-lived, and patients invariably undergo disease progression. Furthermore, resistance to IM develops in 2% to 4% of patients annually and IM dose escalation is generally not sufficient to control the disease. Several mechanisms that contribute to tyrosine kinase inhibitor (TKI) resistance have been proposed including the insensitivity of quiescent CML stem cells to TKIs due to low expression of BCR-ABL and the emergence of drug resistant leukemic clones associated with increased nuclear catenin levels, a hallmark of increased Wnt/catenin transcription. […] Epigenetic silencing of negative regulators of the Wnt signaling cascade is also frequently associated with leukemias, including CML. […] The mice treated with one course (28 days from day 13-41 after leukemia engraftment) of CBP/catenin antagonist plus bcr-abl antagonist are essentially cured of leukemia and live as long (approximately 2 years) as their littermates that were never engrafted with leukemia.

ER alpha receptor = experiment: ER alpha re-expression in triple negative breast cancer; format: cell-based

binding to p300 (p300): not to its closely related homolog p300 | effects on normal endogenous hematopoiesis ([8]; mouse, in vivo): without deleterious effects | expression of the ER alpha receptor (ER alpha receptor): re-expression
SMILES: O=C1[C@H](Cc2ccc(O)cc2)N2C(=O)CCN(C(=O)NCc3ccccc3)[C@H]2CN1Cc1cccc2ccccc12 [ICG-001]
survivin expression (Colorectal cancer cells [1]): down-regulated | cytotoxicity (Colorectal cancer cells [1]; colorectal cancer cells versus normal colonic epithelial cells): selective cytotoxicity | EpB2 expression [2]: again increased | neuronal differentiation and neurite outgrowth [2]: rescues the defects | expression of GAP43 ([2]; NGF-induced differentiation): dramatically increased | lacZ expression in airway and alveolar epithelium ([3]; BAT-gal transgenic mice, intranasal bleomycin): significantly reduced | expression of genes associated with fibrosis, ECM deposition and EMT ([3]; after bleomycin): essentially to the level of control | expression of S100A4/FSP-1 ([3]; in vivo in the mouse): significantly decreased | established fibrosis ([3]; mouse model): could reverse established fibrosis | severity of pulmonary fibrosis ([3]; pretreatment): significantly reduced the severity | p300/beta-catenin interaction [4]: without affecting | Aβ staining in the parietal lobe [5]: significant (A) decrease | amyloid plaque formation ([5]; immunohistochemistry): significant decrease | expression of S100A4/FSP-1 [6]: significantly decreased | expression of EphB2 (Colorectal cancer cells [7]; colon cancer cells): increasing the expression | c-myc message (Colorectal cancer cells [7]; colorectal cancer cells): slight increase in message | cyclin D1 message (Colorectal cancer cells [7]; colorectal cancer cells): decrease in message | survivin message (Colorectal cancer cells [7]; colorectal cancer cells): decreased message | drug resistant leukemia stem cells ([8]; NOD/SCID/IL2rγ−/− mice engrafted with human CML): can be eliminated | differentiation of the IR cells ([8]; in vitro and in vivo): induces the differentiation
